Test results published in patent publication US6752989B1, “Tooth surface treatment agent” (3M ESPE AG, priority 1999, dated 2004).

Test system: fluorescence-marked casein
Test: Proteolytic pepsin activity with fluorescence-marked casein after contact with ground bovine dentine
Format: biochemical
Details: 2.5 ml of 10 μg/ml solution, pH 2.0 buffer, on 1 g ground bovine dentine for 20 min; excitation 480 nm, emission 510 nm
Description: 2.5 ml of a pepsin solution (10 μg/ml) in a 20 mM disodium hydrogen phosphate buffer (pH 2.0) were added to 1 g of ground bovine dentine and allowed to remain there for 20 min. under agitation. Subsequently the mixture was centrifuged for 1 min. in a Heraeus Biofuge Pico at 10,000 rpm. 900 μl of the residue were mixed with 12 μg of fluorescence-marked casein (Molecular Probes company, Göttingen) in 100 μl 20 mM of disodium hydrogen phosphate buffer (pH 2.0). The presence of proteolytic pepsin activity is manifested in the increase in fluorescence with an excitation wave length of 480 nm and with an emission wave length of 510 nm.

**Q.** How did the “proteolytic pepsin activity (increase in fluorescence)” value turn out when pepsin was run?
**A.** no pepsin activity was determinable any more
